# Columns and labels:
# Experiment in all cases: radiometric filter-binding kinase assay, Kinase HotSpot
# Settings in all cases: compound 0.5 µM; ATP 10 µM
# ABL2 (human) = ABL2 (human) (UniProt P42684)
# ACVR1 (human) = ACVR1 (human) (UniProt Q04771)
# AKT2 (human) = AKT2 (human) (UniProt P31751)
# CAMKK2 (human) = CAMKK2 (human) (UniProt Q96RR4)
# CDK2 CCNA2 (human) = CDK2 CCNA2 (human) (UniProt P24941+P20248)
# CLK4 (human) = CLK4 (human) (UniProt Q9HAZ1)
# CSNK2A1 (human) = CSNK2A1 (human) (UniProt P68400)
# DYRK1B (human) = DYRK1B (human) (UniProt Q9Y463)
# EPHA6 (human) = EPHA6 (human) (UniProt Q9UF33)
# EPHA8 (human) = EPHA8 (human) (UniProt P29322)
# FES (human) = FES (human) (UniProt P07332)
# FGFR3 (human) = FGFR3 (human) (UniProt P22607)
# FGR (human) = FGR (human) (UniProt P09769)
# HIPK2 (human) = HIPK2 (human) (UniProt Q9H2X6)
# IGF1R (human) = IGF1R (human) (UniProt P08069)
# KDR (human) = KDR (human) (UniProt P35968)
# KIT (human) = KIT (human) (UniProt P10721)
# MAP3K7 TAB1 (human) = MAP3K7 TAB1 (human) (UniProt O43318+Q15750)
# MAP4K4 (human) = MAP4K4 (human) (UniProt O95819)
# MAPKAPK2 (human) = MAPKAPK2 (human) (UniProt P49137)
# MST1R (human) = MST1R (human) (UniProt Q04912)
# NEK3 (human) = NEK3 (human) (UniProt P51956)
# NEK6 (human) = NEK6 (human) (UniProt Q9HC98)
# NUAK2 (human) = NUAK2 (human) (UniProt Q9H093)
# OXSR1 (human) = OXSR1 (human) (UniProt O95747)
# PBK (human) = PBK (human) (UniProt Q96KB5)
# PDGFRB (human) = PDGFRB (human) (UniProt P09619)
# PIM2 (human) = PIM2 (human) (UniProt Q9P1W9)
# PRKCA (human) = PRKCA (human) (UniProt P17252)
# PRKD1 (human) = PRKD1 (human) (UniProt Q15139)
# PTK2 (human) = PTK2 (human) (UniProt Q05397)
# RIPK2 (human) = RIPK2 (human) (UniProt O43353)
# ROCK1 (human) = ROCK1 (human) (UniProt Q13464)
# SGK2 (human) = SGK2 (human) (UniProt Q9HBY8)
# SIK2 (human) = SIK2 (human) (UniProt Q9H0K1)
# STK16 (human) = STK16 (human) (UniProt O75716)
# STK24 (human) = STK24 (human) (UniProt Q9Y6E0)
# STK4 (human) = STK4 (human) (UniProt Q13043)
# SYK (human) = SYK (human) (UniProt P43405)
# TAOK3 (human) = TAOK3 (human) (UniProt Q9H2K8)
# TTK (human) = TTK (human) (UniProt P33981)
# [1] = target: TYK2 JH1 catalytic (human) (UniProt P29597)
# CDK2 CCNA2 (human), sequence (P20248 whole entry, looked up, other chains not shown): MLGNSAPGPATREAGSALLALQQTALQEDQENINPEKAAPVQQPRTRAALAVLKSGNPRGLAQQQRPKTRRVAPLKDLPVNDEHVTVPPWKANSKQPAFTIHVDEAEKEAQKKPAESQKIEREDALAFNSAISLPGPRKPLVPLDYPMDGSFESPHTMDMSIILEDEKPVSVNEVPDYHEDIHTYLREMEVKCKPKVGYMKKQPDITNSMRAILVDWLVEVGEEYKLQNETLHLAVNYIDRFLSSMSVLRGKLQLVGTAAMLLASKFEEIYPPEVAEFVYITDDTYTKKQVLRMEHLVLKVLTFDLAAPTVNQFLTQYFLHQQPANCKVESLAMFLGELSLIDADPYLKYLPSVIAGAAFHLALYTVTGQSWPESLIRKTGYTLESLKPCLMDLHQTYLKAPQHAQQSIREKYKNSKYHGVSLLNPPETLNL
# KIT (human), sequence (P10721 whole entry, looked up): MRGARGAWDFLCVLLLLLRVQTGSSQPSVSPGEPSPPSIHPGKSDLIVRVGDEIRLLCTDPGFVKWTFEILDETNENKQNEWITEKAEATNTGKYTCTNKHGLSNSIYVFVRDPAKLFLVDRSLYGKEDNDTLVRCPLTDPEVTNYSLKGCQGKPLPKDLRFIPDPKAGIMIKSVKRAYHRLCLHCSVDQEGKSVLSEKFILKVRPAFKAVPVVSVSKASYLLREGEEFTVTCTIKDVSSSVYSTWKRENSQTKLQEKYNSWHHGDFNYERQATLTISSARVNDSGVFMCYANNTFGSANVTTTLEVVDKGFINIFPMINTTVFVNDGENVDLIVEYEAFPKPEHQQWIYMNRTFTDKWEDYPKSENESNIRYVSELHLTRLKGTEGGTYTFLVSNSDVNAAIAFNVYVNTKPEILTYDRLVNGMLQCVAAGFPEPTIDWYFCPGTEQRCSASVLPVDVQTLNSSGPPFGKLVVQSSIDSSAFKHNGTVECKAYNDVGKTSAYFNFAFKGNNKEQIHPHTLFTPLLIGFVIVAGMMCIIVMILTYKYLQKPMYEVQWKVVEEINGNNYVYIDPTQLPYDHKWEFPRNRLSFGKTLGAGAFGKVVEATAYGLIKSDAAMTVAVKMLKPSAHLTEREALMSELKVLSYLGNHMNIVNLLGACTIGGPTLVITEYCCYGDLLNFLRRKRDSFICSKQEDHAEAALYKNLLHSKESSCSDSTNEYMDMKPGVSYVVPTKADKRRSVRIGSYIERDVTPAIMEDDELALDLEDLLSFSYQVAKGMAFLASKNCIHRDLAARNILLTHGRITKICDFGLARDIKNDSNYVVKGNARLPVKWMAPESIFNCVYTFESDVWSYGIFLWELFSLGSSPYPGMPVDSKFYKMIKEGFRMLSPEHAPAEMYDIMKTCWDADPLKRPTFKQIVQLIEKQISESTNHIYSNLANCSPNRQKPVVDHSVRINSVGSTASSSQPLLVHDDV
# DYRK1B (human), sequence (Q9Y463 whole entry, looked up): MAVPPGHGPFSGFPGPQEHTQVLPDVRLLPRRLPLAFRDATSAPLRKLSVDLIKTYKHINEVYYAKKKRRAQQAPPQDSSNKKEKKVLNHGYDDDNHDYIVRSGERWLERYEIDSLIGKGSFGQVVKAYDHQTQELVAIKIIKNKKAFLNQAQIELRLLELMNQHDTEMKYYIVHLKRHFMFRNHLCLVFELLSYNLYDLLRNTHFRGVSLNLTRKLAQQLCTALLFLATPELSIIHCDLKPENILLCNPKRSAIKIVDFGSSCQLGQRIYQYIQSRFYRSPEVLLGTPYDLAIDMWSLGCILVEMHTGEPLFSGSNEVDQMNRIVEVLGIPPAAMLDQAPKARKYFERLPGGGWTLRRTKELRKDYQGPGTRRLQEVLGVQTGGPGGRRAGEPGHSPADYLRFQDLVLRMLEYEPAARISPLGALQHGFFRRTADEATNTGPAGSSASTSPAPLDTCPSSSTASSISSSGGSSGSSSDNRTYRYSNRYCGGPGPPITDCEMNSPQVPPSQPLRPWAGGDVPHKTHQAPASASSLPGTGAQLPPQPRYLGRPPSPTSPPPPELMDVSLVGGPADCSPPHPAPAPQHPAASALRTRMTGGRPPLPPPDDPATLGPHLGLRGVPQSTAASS
# AKT2 (human), sequence (P31751 whole entry, looked up): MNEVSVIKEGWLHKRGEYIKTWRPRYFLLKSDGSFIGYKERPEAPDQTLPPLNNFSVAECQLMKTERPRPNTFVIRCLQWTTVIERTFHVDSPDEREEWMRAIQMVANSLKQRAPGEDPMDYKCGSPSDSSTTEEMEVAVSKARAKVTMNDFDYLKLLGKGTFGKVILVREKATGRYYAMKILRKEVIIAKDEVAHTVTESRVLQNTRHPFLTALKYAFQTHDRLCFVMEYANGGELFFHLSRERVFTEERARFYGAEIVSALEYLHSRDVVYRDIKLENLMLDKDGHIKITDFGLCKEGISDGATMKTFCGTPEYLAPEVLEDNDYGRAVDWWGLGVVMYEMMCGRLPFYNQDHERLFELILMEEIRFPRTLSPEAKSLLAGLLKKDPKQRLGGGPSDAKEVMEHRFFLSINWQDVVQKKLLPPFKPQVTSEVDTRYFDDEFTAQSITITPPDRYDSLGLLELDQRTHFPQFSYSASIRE
# EPHA6 (human), sequence (Q9UF33 whole entry, looked up): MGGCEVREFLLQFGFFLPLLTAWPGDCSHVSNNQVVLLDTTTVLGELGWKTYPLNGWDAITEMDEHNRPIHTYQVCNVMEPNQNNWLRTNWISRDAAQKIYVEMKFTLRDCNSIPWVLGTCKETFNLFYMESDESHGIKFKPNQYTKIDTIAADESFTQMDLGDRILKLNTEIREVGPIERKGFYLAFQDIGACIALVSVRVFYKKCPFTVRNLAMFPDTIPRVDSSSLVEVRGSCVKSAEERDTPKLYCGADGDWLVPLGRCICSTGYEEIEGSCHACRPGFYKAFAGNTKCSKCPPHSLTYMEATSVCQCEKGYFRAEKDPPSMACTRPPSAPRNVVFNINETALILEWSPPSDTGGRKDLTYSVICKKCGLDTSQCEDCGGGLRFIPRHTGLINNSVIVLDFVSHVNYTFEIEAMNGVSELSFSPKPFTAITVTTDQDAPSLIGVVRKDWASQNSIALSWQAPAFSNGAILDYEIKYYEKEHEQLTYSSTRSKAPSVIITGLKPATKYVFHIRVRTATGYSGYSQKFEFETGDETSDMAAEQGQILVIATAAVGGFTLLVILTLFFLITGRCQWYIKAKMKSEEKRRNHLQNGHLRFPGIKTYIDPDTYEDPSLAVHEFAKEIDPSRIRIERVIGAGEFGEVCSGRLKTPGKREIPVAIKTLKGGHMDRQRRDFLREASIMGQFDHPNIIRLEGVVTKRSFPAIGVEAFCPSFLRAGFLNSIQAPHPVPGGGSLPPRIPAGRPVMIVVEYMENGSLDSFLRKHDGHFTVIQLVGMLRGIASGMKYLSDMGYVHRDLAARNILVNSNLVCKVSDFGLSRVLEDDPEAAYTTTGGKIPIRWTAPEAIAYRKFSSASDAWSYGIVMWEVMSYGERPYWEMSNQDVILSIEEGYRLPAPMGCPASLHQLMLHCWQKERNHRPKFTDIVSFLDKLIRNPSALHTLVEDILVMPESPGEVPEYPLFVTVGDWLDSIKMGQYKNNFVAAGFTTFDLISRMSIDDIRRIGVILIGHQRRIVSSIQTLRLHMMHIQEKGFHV
# FES (human), sequence (P07332 whole entry, looked up): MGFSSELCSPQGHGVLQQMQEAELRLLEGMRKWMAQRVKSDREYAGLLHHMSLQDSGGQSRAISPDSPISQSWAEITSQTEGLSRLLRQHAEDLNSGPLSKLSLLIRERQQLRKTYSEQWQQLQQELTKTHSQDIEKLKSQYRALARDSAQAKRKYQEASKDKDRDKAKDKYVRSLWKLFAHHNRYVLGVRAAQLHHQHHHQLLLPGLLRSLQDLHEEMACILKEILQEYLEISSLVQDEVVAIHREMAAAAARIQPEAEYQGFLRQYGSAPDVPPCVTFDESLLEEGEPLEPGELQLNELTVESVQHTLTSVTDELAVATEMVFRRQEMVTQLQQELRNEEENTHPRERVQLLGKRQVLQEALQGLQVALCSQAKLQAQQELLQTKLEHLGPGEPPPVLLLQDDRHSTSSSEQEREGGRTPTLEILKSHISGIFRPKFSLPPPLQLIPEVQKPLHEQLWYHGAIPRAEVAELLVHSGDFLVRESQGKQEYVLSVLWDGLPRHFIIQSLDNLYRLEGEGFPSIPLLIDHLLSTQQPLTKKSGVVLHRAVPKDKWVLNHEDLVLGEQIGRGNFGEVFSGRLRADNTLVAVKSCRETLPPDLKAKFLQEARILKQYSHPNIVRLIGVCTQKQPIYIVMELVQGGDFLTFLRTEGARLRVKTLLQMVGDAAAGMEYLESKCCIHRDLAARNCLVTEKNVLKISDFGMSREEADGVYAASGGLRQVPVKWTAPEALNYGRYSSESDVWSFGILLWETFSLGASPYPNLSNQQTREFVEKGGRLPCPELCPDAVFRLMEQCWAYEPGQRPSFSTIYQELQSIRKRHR
# STK16 (human), sequence (O75716 whole entry, looked up): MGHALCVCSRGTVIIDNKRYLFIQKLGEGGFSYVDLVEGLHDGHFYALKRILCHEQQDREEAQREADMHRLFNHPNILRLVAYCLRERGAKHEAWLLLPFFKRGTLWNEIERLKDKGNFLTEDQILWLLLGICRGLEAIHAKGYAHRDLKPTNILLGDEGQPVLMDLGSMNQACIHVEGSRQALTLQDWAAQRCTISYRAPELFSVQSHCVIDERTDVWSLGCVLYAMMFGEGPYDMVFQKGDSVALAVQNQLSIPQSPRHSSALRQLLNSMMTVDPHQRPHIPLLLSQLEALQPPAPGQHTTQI
# SGK2 (human), sequence (Q9HBY8 whole entry, looked up): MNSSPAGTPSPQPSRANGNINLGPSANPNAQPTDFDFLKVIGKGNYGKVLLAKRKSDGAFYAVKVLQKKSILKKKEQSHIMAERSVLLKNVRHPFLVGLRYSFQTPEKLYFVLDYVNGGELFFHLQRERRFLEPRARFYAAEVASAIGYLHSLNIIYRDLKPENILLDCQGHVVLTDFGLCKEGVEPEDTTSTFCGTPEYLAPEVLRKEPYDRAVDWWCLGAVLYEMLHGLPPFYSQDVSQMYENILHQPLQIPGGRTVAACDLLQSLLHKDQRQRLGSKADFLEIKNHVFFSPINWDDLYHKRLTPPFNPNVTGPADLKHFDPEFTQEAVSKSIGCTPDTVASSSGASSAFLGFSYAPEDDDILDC
structure (smiles),measurement,setting,value
Nc1ncnc2c1c(-c1ccc(Oc3ccccc3)cc1)cn2C1CCCC1,residual activity,ABL2 (human),84.8%
same,residual activity,ACVR1 (human),95.4%
same,residual activity,AKT2 (human),99.7%
same,residual activity,CAMKK2 (human),86.3%
same,residual activity,CDK2 CCNA2 (human),104%
same,residual activity,CLK4 (human),98%
same,residual activity,CSNK2A1 (human),102%
same,residual activity,DYRK1B (human),92.2%
same,residual activity,EPHA6 (human),63.6%
same,residual activity,EPHA8 (human),95.2%
same,residual activity,FES (human),94.9%
same,residual activity,FGFR3 (human),77.5%
same,residual activity,FGR (human),2.93%
same,residual activity,HIPK2 (human),106%
same,residual activity,IGF1R (human),104%
same,residual activity,KDR (human),75%
same,residual activity,KIT (human),21.6%
same,residual activity,MAP3K7 TAB1 (human),92.3%
same,residual activity,MAP4K4 (human),98.8%
same,residual activity,MAPKAPK2 (human),107%
same,residual activity,MST1R (human),94%
same,residual activity,NEK3 (human),98.4%
same,residual activity,NEK6 (human),107%
same,residual activity,NUAK2 (human),96.8%
same,residual activity,OXSR1 (human),93.5%
same,residual activity,PBK (human),114%
same,residual activity,PDGFRB (human),73.4%
same,residual activity,PIM2 (human),110%
same,residual activity,PRKCA (human),106%
same,residual activity,PRKD1 (human),96.2%
same,residual activity,PTK2 (human),93.9%
same,residual activity,RIPK2 (human),28.6%
same,residual activity,ROCK1 (human),106%
same,residual activity,SGK2 (human),95.4%
same,residual activity,SIK2 (human),101%
same,residual activity,STK16 (human),90.7%
same,residual activity,STK24 (human),100%
same,residual activity,STK4 (human),77.8%
same,residual activity,SYK (human),104%
same,residual activity,TAOK3 (human),92.9%
same,residual activity,TTK (human),104%
same,residual activity,[1],98.5%
Nc1ccc2ncnc(NCCc3ccc(Oc4ccccc4)cc3)c2c1,residual activity,ABL2 (human),102%
same,residual activity,ACVR1 (human),91.8%
same,residual activity,AKT2 (human),101%
same,residual activity,CAMKK2 (human),92.6%
same,residual activity,CDK2 CCNA2 (human),95.8%
same,residual activity,CLK4 (human),94.6%
same,residual activity,CSNK2A1 (human),95.2%
same,residual activity,DYRK1B (human),104%
same,residual activity,EPHA6 (human),92.8%
same,residual activity,EPHA8 (human),101%
same,residual activity,FES (human),99.6%
same,residual activity,FGFR3 (human),101%
same,residual activity,FGR (human),101%
same,residual activity,HIPK2 (human),110%
same,residual activity,IGF1R (human),99.7%
same,residual activity,KDR (human),91.7%
same,residual activity,KIT (human),99.7%
same,residual activity,MAP3K7 TAB1 (human),96.2%
same,residual activity,MAP4K4 (human),99.2%
same,residual activity,MAPKAPK2 (human),108%
same,residual activity,MST1R (human),97.2%
same,residual activity,NEK3 (human),108%
same,residual activity,NEK6 (human),103%
same,residual activity,NUAK2 (human),112%
same,residual activity,OXSR1 (human),101%
same,residual activity,PBK (human),98.2%
same,residual activity,PDGFRB (human),105%
same,residual activity,PIM2 (human),119%
same,residual activity,PRKCA (human),103%
same,residual activity,PRKD1 (human),99.3%
same,residual activity,PTK2 (human),98.6%
same,residual activity,RIPK2 (human),94.6%
same,residual activity,ROCK1 (human),94.4%
same,residual activity,SGK2 (human),99.6%
same,residual activity,SIK2 (human),97.4%
same,residual activity,STK16 (human),94.7%
same,residual activity,STK24 (human),107%
same,residual activity,STK4 (human),95.8%
same,residual activity,SYK (human),102%
same,residual activity,TAOK3 (human),102%
same,residual activity,TTK (human),97.6%
same,residual activity,[1],99.9%
Nc1ncnc2[nH]nc(Nc3ccc(F)cc3)c12,residual activity,ABL2 (human),82.3%
same,residual activity,ACVR1 (human),127%
same,residual activity,AKT2 (human),108%
same,residual activity,CAMKK2 (human),83.6%
same,residual activity,CDK2 CCNA2 (human),88.7%
same,residual activity,CLK4 (human),88.7%
same,residual activity,CSNK2A1 (human),89.9%
same,residual activity,DYRK1B (human),99.2%
same,residual activity,EPHA6 (human),49.3%
same,residual activity,EPHA8 (human),94%
same,residual activity,FES (human),100%
same,residual activity,FGFR3 (human),101%
same,residual activity,FGR (human),89.5%
same,residual activity,HIPK2 (human),106%
same,residual activity,IGF1R (human),104%
same,residual activity,KDR (human),104%
same,residual activity,KIT (human),93.5%
same,residual activity,MAP3K7 TAB1 (human),100%
same,residual activity,MAP4K4 (human),59.4%
same,residual activity,MAPKAPK2 (human),105%
same,residual activity,MST1R (human),93.7%
same,residual activity,NEK3 (human),102%
same,residual activity,NEK6 (human),102%
same,residual activity,NUAK2 (human),90.4%
same,residual activity,OXSR1 (human),110%
same,residual activity,PBK (human),87.6%
same,residual activity,PDGFRB (human),98%
same,residual activity,PIM2 (human),89.3%
same,residual activity,PRKCA (human),98%
same,residual activity,PRKD1 (human),98.9%
same,residual activity,PTK2 (human),103%
same,residual activity,RIPK2 (human),68.7%
same,residual activity,ROCK1 (human),100%
same,residual activity,SGK2 (human),96.5%
same,residual activity,SIK2 (human),78.7%
same,residual activity,STK16 (human),108%
same,residual activity,STK24 (human),81.6%
same,residual activity,STK4 (human),90.4%
same,residual activity,SYK (human),97.4%
same,residual activity,TAOK3 (human),92.4%
same,residual activity,TTK (human),96.1%
same,residual activity,[1],92.3%
CO[C@H]1CC2CC[C@@H](C)[C@@](O)(O2)C(=O)C(=O)N2CCCC[C@H]2C(=O)OC([C@H](C)C[C@@H]2CC[C@@H](O)[C@H](OC)C2)CC(=O)[C@H](C)/C=C(\C)[C@@H](O)[C@@H](OC)C(=O)[C@H](C)C[C@H](C)/C=C/C=C/C=C/1C (stereo partly drawn),residual activity,ABL2 (human),94.2%
same,residual activity,ACVR1 (human),94.6%
same,residual activity,AKT2 (human),96.1%
same,residual activity,CAMKK2 (human),115%
same,residual activity,CDK2 CCNA2 (human),101%
same,residual activity,CLK4 (human),116%
same,residual activity,CSNK2A1 (human),94.7%
same,residual activity,DYRK1B (human),108%
same,residual activity,EPHA6 (human),99%
same,residual activity,EPHA8 (human),92.7%
same,residual activity,FES (human),108%
same,residual activity,FGFR3 (human),102%
same,residual activity,FGR (human),94.5%
same,residual activity,HIPK2 (human),88%
same,residual activity,IGF1R (human),112%
same,residual activity,KDR (human),98.1%
same,residual activity,KIT (human),95.7%
same,residual activity,MAP3K7 TAB1 (human),95.2%
same,residual activity,MAP4K4 (human),87.7%
same,residual activity,MAPKAPK2 (human),101%
same,residual activity,MST1R (human),97%
same,residual activity,NEK3 (human),99%
same,residual activity,NEK6 (human),97.7%
same,residual activity,NUAK2 (human),140%
same,residual activity,OXSR1 (human),96.6%
same,residual activity,PBK (human),103%
same,residual activity,PDGFRB (human),108%
same,residual activity,PIM2 (human),102%
same,residual activity,PRKCA (human),108%
same,residual activity,PRKD1 (human),98.2%
same,residual activity,PTK2 (human),103%
same,residual activity,RIPK2 (human),90.5%
same,residual activity,ROCK1 (human),103%
same,residual activity,SGK2 (human),101%
same,residual activity,SIK2 (human),94.3%
same,residual activity,STK16 (human),112%
same,residual activity,STK24 (human),93.5%
same,residual activity,STK4 (human),106%
same,residual activity,SYK (human),97.1%
same,residual activity,TAOK3 (human),106%
same,residual activity,TTK (human),117%
same,residual activity,[1],107%

# Reference: the kinase profiling compilation of Christmann-Franck et al. (2016)
